Laboratory results from patent US20160220567A1, “COMPOSITION FOR TREATING OR PREVENTING BONE DISEASES, COMPRISING HALOFUGINONE AS ACTIVE INGREDIENT” (THE CATHOLIC UNIVERSITY OF KOREA INDUSTRY-ACADEMIC …, priority 2013, published 2016).

Columns and labels:
[1] = tested on: bone marrow cells differentiating into osteoclasts; test: TRAP staining of bone marrow cells from arthritis animal model cultured with M-CSF and RANKL; type: in vivo, mouse; settings: bone marrow cells from treated CIA mice, cultured with M-CSF and RANKL for 7 days, FIG. 4B
Procedure: For the construction of a mouse model with collagen-induced arthritis (hereinafter, referred to as “CIA”), a 6-week old male DBA/1J mouse was subjected to primary immunization by intradermal injection after mixing the bovine type II collagen (hereinafter, referred to as “CII”) and complete Freud's adjuvant (CFA) in an amount of 100 μL, respectively. After a week thereafter, halofuginone was injected intraperitoneally at 3 day intervals at a concentration of 100 μg/kg and 500 μg/kg, respectively (9 weeks).
Accordingly, the present inventors isolated bone marrow cells from the joint of the animal model with arthritis, cultured the cells under the stimulation of M-CSF and RANKL for 7 days, and subjected them to TRAP staining using the leukocyte acid phosphatase Kit (387-A, Sigma, St. Louis, Mo., USA) according to the manufacturer's manual.

[2] = tested on: Th17 cells; test: mRNA expression of IL-17, CCR6, SOCS3 and Foxp3 in Th17 cells by real-time PCR; type: cell-based, mouse; settings: FIG. 3B
Procedure: The real-time PCR was performed using the LightCycler 2.0 System Instrument and the reaction compounds were prepared by mixing 1 μL of each cDNA, 10 μL of premix Ex Taq as an enzyme for the initiation, and each primer pair to a final volume of 20 μL using distilled water. The reaction conditions were: reacted at 95° C. for 10 minutes, followed by a total of 50 cycles consisting of denaturation at 95° C. for 10 seconds, annealing at 60° C. for 5 seconds, and extension at 72° C. for 10 seconds. The values of cycle threshold (Ct) were analyzed and the amount of mRNA expression for each target was indicated in terms of the amount of beta-actin mRNA expression and the relative quantity. The primers used are shown below.
Splenocytes were obtained from mice, that is, the spleens removed from the mice and the spleen tissues were thinly ground using a tearing slide and the red blood cells (RBC) in the splenocytes were removed with the RBC lysis solution. Then, PBS buffer solution was added thereto, and the mixture was centrifuged, and washed to obtain splenocytes. Then, the singe cells (1 ? 10^6) isolated from the spleens were aliquoted into a 24-well plate coated with anti-CD3 antibody (1 μg/mL) were treated under the condition of capable of stimulating Th17 cells (anti-CD28 antibody (1 μg/mL), TGF-β (2 ng/ mL), IL-6 (20 ng/mL), anti-IL-4 (10 μg/mL), and anti-IFN-γ (10 μg/mL); the condition of capable of stimulating Th1 cells (anti-CD28 antibody (1 μg/mL), IL-12 (10 ng/mL), and anti-IL-4 (10 μg/mL)); or the condition of capable of stimulating Th2 cells (anti-CD28 antibody (1 μg/mL), IL-4 (10 ng/mL), and anti-IFN-γ (10 μg/mL)); and the cells were cultured for 3 days, and in particular, cultured after treating the cells with halofuginone at respective concentration and cultured. Specifically, DMSO treatment was used for the control group.
The expression of IL-17, CCR6, SOCS3, and Foxp3 in the cells under the condition of Example <2-2> was analyzed by real-time PCR as described in Example <1-6>. The primers used are shown below.

[3] = tested on: osteoclasts from murine bone marrow cells; test: Bone resorption potential by osteoclasts on Dentine slice, murine bone marrow cells; type: cell-based, mouse; settings: M-CSF, RANKL, 21 days, FIG. 5B
Procedure: (§1) To examine the effect of halofuginone on the bone resorption potential by osteoclasts, murine bone marrow cells were cultured in Dentine slice, and the cultured cells were stimulated with M-CSF, RANKL, and halofuginone, and cultured for 21 additional days. Then, the cells were removed using 5% sodium hypochlorite solution, subjected to Hematoxylin staining, and the bone resorption lacunae formed by the bone resorption of osteoclasts were photographed.

[4] = tested on: mononuclear cells of human peripheral blood; test: Differentiation of osteoclasts in mononuclear cells of human peripheral blood: TRAP staining and real-time PCR; type: cell-based; settings: M-CSF, RANKL, 9 days
Procedure: The mononuclear cells of human peripheral blood were cultured for 9 days after stimulating with M-CSF, RANKL, and halofuginone. Then, the cells were stained by TRAP according to the manufacturer's manual, and the amount of mRNA of TRAP, NFATc1, calcitonin receptor (CTR), cathepsin K, MMP9, and RANK were confirmed by real-time PCR.

[5] = tested on: osteoclasts from mononuclear cells of human peripheral blood; test: Bone resorption potential by osteoclasts in human cells; type: cell-based; settings: FIG. 6D
Procedure: as §1
The effect of halofuginone on the bone resorption potential by osteoclasts was observed using the mononuclear cells of human peripheral blood, in the same manner as described in Example <2-7>.

[6] = dose-dependent, FIGS. 6B and 6C

Q: With O=C(C[C@H]1NCCC[C@@H]1O)Cn1cnc2cc(Br)c(Cl)cc2c1=O (racemic) [halofuginone] as the compound, how does the “number of TRAP positive cells” value [1] read?
A: The value was “decreased”.

Q: And the “expression of CCR6” value [2]?
A: Its value is “inhibits”.

Q: What about the “expression of Foxp3” value [2] of the same compound?
A: Its value is “increasing”.

Q: And the “expression of IL-17” value [2]?
A: Its value is “inhibits”.

Q: And the “expression of SOCS” value [2]?
A: Its value is “increasing”.

Q: What about the bone resorption potential [3] of the same compound?
A: Its bone resorption potential is “significantly reduced”.

Q: And the differentiation of osteoclasts [4]?
A: Its differentiation of osteoclasts is “effectively inhibit”.

Q: What about the “mRNA expression of MMP9” value [4, 6] of the same compound?
A: The value was “decreased”.

Q: And the “mRNA expression of NFATc1” value [4, 6]?
A: Its value is “decreased”.

Q: What about the “mRNA expression of RANK” value [4, 6] of the same compound?
A: Its value is “decreased”.

Q: And the “mRNA expression of TRAP” value [4, 6]?
A: Its value is “decreased”.

Q: What about the “mRNA expression of calcitonin receptor(CTR)” value [4, 6] of the same compound?
A: The value was “decreased”.

Q: And the “mRNA expression of cathepsin K” value [4, 6]?
A: The value was “decreased”.

Q: What about the bone resorption potential [5] of the same compound?
A: The bone resorption potential was “significantly reduced”.
